According to article PMC8761492 (Life Science Alliance, 2022):
Starred links: 1 amine or outer side, 2 acyl side, 3 side chain; linkers in the order of their positions; H or OH if unused. Positions of bridges follow the written chain, without caps; N, C: chain ends. Non-standard residues stand in square brackets, D forms with d. Residues, ends and D or L forms follow the SMILES beside them. *: point of attachment. X1 = CC[C@H](C)[C@@H](N[*:1])[C@@H](O)CC(=O)O[C@H](C(=O)[C@H](C)C(=O)[*:2])C(C)C; NMeY = CN[C@@H](Cc1ccc(O)cc1)C(=O)O; dNMeL = CN[C@H](CC(C)C)C(=O)O; Pyruvoyl = CC(=O)C(=O)*

System: COVID-19
Experiment: APLICOV-PC: six-point ordinal scale (post hoc)
Assay type: in vivo, human
Experimental: Although not specified in the protocol (so not captured in the CRF), post-hoc analysis was performed to categorize the status of each patient at baseline, on Days 7, 15, 31, and at time of discharge using the following 6-point ordinal scale (Wang et al 2020):
Hospital admission, not requiring supplemental oxygen
Hospital admission, requiring supplemental oxygen
Hospital admission, requiring high-flow nasal cannula or noninvasive mechanical ventilation
Hospital admission, requiring extracorporeal membrane oxygenation or invasive mechanical ventilation
The number and percentage of patients with at least 1-point and at least 2-point improvements from baseline was calculated for Days 7, 15, 31 and date of discharge.

SMILES: CC[C@H](C)[C@H]1NC(=O)[C@@H](NC(=O)[C@@H](CC(C)C)N(C)C(=O)[C@@H]2CCCN2C(=O)C(C)=O)[C@@H](C)OC(=O)[C@H](Cc2ccc(OC)cc2)N(C)C(=O)[C@@H]2CCCN2C(=O)[C@H](CC(C)C)NC(=O)[C@@H](C)C(=O)[C@H](C(C)C)OC(=O)C[C@@H]1O [Plitidepsin] (Pyruvoyl-P[dNMeL]T[X1]LP[NMeY](Me); ester 3-C)
- 2 Hospital admission, not requiring supplemental oxygen (Day 4, 1.5 mg (N=14)): 28.6%
- 3 Hospital admission, requiring supplemental oxygen (Day 4, 1.5 mg (N=14)): 57.1%
- 4 Hospital admission, requiring high-flow nasal cannula or non-invasive mechanical ventilation (Day 4, 1.5 mg (N=14)): 14.3%
- 2 Hospital admission, not requiring supplemental oxygen (Day 4, 2 mg (N=15)): 40%
- 3 Hospital admission, requiring supplemental oxygen (Day 4, 2 mg (N=15)): 60%
- 2 Hospital admission, not requiring supplemental oxygen (Day 4, 2.5 mg (N=15)): 33.3%
- 3 Hospital admission, requiring supplemental oxygen (Day 4, 2.5 mg (N=15)): 66.7%
- 2 Hospital admission, not requiring supplemental oxygen (Day 4, Total (N=44)): 34.1%
- 3 Hospital admission, requiring supplemental oxygen (Day 4, Total (N=44)): 61.4%
- 4 Hospital admission, requiring high-flow nasal cannula or non-invasive mechanical ventilation (Day 4, Total (N=44)): 4.5%
- 1 Discharged (Alive) (Day 7, 1.5 mg (N=14)): 21.4%
- 2 Hospital admission, not requiring supplemental oxygen (Day 7, 1.5 mg (N=14)): 21.4%
- 3 Hospital admission, requiring supplemental oxygen (Day 7, 1.5 mg (N=14)): 35.7%
- 4 Hospital admission, requiring high-flow nasal cannula or non-invasive mechanical ventilation (Day 7, 1.5 mg (N=14)): 21.4%
- 1 Discharged (Alive) (Day 7, 2 mg (N=15)): 13.3%
- 2 Hospital admission, not requiring supplemental oxygen (Day 7, 2 mg (N=15)): 20%
- 3 Hospital admission, requiring supplemental oxygen (Day 7, 2 mg (N=15)): 66.7%
- 1 Discharged (Alive) (Day 7, 2.5 mg (N=15)): 33.3%
- 2 Hospital admission, not requiring supplemental oxygen (Day 7, 2.5 mg (N=15)): 20%
- 3 Hospital admission, requiring supplemental oxygen (Day 7, 2.5 mg (N=15)): 26.7%
- 4 Hospital admission, requiring high-flow nasal cannula or non-invasive mechanical ventilation (Day 7, 2.5 mg (N=15)): 20%
- 1 Discharged (Alive) (Day 7, Total (N=44)): 22.7%
- 2 Hospital admission, not requiring supplemental oxygen (Day 7, Total (N=44)): 20.5%
- 3 Hospital admission, requiring supplemental oxygen (Day 7, Total (N=44)): 43.2%
- 4 Hospital admission, requiring high-flow nasal cannula or non-invasive mechanical ventilation (Day 7, Total (N=44)): 13.6%
- 1 Discharged (Alive) (Day 15, 1.5 mg (N=14)): 78.6%
- 3 Hospital admission, requiring supplemental oxygen (Day 15, 1.5 mg (N=14)): 7.1%
- 4 Hospital admission, requiring high-flow nasal cannula or non-invasive mechanical ventilation (Day 15, 1.5 mg (N=14)): 7.1%
- 5 Hospital admission, requiring extracorporeal membrane oxygenation or invasive mechanical ventilation (Day 15, 1.5 mg (N=14)): 7.1%
- 1 Discharged (Alive) (Day 15, 2 mg (N=15)): 93.3%
- 5 Hospital admission, requiring extracorporeal membrane oxygenation or invasive mechanical ventilation (Day 15, 2 mg (N=15)): 6.7%
- 1 Discharged (Alive) (Day 15, 2.5 mg (N=15)): 73.3%
- 3 Hospital admission, requiring supplemental oxygen (Day 15, 2.5 mg (N=15)): 6.7%
- 4 Hospital admission, requiring high-flow nasal cannula or non-invasive mechanical ventilation (Day 15, 2.5 mg (N=15)): 20%
- 1 Discharged (Alive) (Day 15, Total (N=44)): 81.8%
- 3 Hospital admission, requiring supplemental oxygen (Day 15, Total (N=44)): 4.5%
- 4 Hospital admission, requiring high-flow nasal cannula or non-invasive mechanical ventilation (Day 15, Total (N=44)): 9.1%
- 5 Hospital admission, requiring extracorporeal membrane oxygenation or invasive mechanical ventilation (Day 15, Total (N=44)): 4.5%
- 1 Discharged (Alive) (Day 31, 1.5 mg (N=14)): 85.7%
- 2 Hospital admission, not requiring supplemental oxygen (Day 31, 1.5 mg (N=14)): 7.1%
- 6 Death (Day 31, 1.5 mg (N=14)): 7.1%
- 1 Discharged (Alive) (Day 31, 2 mg (N=15)): 93.3%
- 4 Hospital admission, requiring high-flow nasal cannula or non-invasive mechanical ventilation (Day 31, 2 mg (N=15)): 6.7%
- 1 Discharged (Alive) (Day 31, 2.5 mg (N=15)): 80%
- 2 Hospital admission, not requiring supplemental oxygen (Day 31, 2.5 mg (N=15)): 6.7%
- 5 Hospital admission, requiring extracorporeal membrane oxygenation or invasive mechanical ventilation (Day 31, 2.5 mg (N=15)): 6.7%
- 6 Death (Day 31, 2.5 mg (N=15)): 6.7%
- 1 Discharged (Alive) (Day 31, Total (N=44)): 86.4%
- 2 Hospital admission, not requiring supplemental oxygen (Day 31, Total (N=44)): 4.5%
- 4 Hospital admission, requiring high-flow nasal cannula or non-invasive mechanical ventilation (Day 31, Total (N=44)): 2.3%
- 5 Hospital admission, requiring extracorporeal membrane oxygenation or invasive mechanical ventilation (Day 31, Total (N=44)): 2.3%
- 6 Death (Day 31, Total (N=44)): 4.5%
